{"source": "patent US20250154138A1", "about": "“Small Molecule IL-17A Modulators” (BeiGene, Ltd., priority 2022, published 2025)", "key": {"[1]": {"target": "human IL-17A / human IL-17RA (Homo sapiens (Human), UniProt Q16552)", "sequence (Q16552 24-155)": "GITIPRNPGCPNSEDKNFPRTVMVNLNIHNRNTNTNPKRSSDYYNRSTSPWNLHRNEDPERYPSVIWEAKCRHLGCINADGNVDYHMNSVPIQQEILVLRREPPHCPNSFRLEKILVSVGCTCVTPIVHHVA", "assay": "Human IL-17A biochemical assay (HTRF, blocking of IL-17A binding to IL-17RA)", "conditions": "0.4 nM IL-17A, 0.3 nM IL-17RA, max compound concentration 10 uM", "in_short": "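0.4 nM hIL-17A + cpd (10 uM top, 2.7x, 10 pt), 3 h RT, HEPES pH 7.5 buffer w/ BSA, DTT, Tween 20; + 0.3 nM hIL-17RA 1 h RT; Tb/XL665 Abs 1 h; HTRF 620/665 ratio; 4PL IC50.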"}, "[2]": {"test_system": "IL-17-induced GROα secretion from HT-29 cells", "assay": "GROα release assay in human colorectal adenocarcinoma epithelial cell (HT-29, ELISA)", "format": "cell-based", "conditions": "Homo sapiens, HT-29, 48 h, 10 ng/mL IL-17A, highest concentration 10 μM, read-out: Cellular assay HT29 cell/CXCL1 IC50", "in_short": "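HT-29 cells were exposed 48 h at 37°C to IL-17A (final 10 ng/mL) preincubated 15 min with compound (4-fold dilutions, top 10 μM). Secreted GROα was quantified by ELISA against a standard curve, and IC50 obtained by four-parameter fitting.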"}}, "note": "pIC50: −log10 of the molar value."}
{"smiles": "Cc1nonc1C(=O)N[C@H](C(=O)Nc1ccc2c(c1)CC(N1C[C@@H](C(F)(F)F)NC1=O)C2)C1CCC(F)(F)CC1", "note": "(stereo partly drawn) [Example 178, N-((1S)-1-(4,4-difluorocyclohexyl)-2-oxo-2-((2-((S)-2-oxo-4-(trifluoromethyl)imidazolidin-1-yl)-2,3-dihydro-1H-inden-5-yl)amino)ethyl)-4-methyl-1,2,5-oxadiazole-3-carboxamide]", "values": [{"measurement": "pIC50", "setting": "[1]", "value": 5.44}, {"measurement": "pIC50", "setting": "[2]", "value": 5.66}]}
{"smiles": "CNC(=O)C1(N2CC(C)(C(F)(F)F)CNC2=O)Cc2ccc(NC(=O)[C@@H](NC(=O)c3ccnn3C)C3CCCCC3)cc2C1", "note": "(stereo partly drawn) [Example 179, N-((1S)-1-cyclohexyl-2-((2-(5-methyl-2-oxo-5-(trifluoromethyl)tetrahydropyrimidin-1(2H)-yl)-2-(methylcarbamoyl)-2,3-dihydro-1H-inden-5-yl)amino)-2-oxoethyl)-1-methyl-1H-pyrazole-5-carboxamide]", "values": [{"measurement": "pIC50", "setting": "[1]", "value": 7.96}, {"measurement": "pIC50", "setting": "[2]", "value": 7.29}]}
{"smiles": "CNC(=O)C1(N2CC3(CC3)CNC2=O)Cc2ccc(NC(=O)C(NC(=O)c3nonc3C)C3CCC(C(F)(F)F)CC3)cc2C1", "note": "(centres unmarked) [Example 181, 4-methyl-N-(2-((2-(methylcarbamoyl)-2-(6-oxo-5,7-diazaspiro[2.5]octan-5-yl)-2,3-dihydro-1H-inden-5-yl)amino)-2-oxo-1-(4-(trifluoromethyl)cyclohexyl)ethyl)-1,2,5-oxadiazole-3-carboxamide]", "values": [{"measurement": "pIC50", "setting": "[1]", "value": 6.72}, {"measurement": "pIC50", "setting": "[2]", "value": 6.81}]}
{"smiles": "Cn1nccc1C(=O)N[C@H](C(=O)Nc1ccc2c(c1)CC(C(=O)NC13CC(C1)C3)(N1CC3(CC3)CNC1=O)C2)C1CCCCC1", "note": "(stereo partly drawn) [Example 182, N-((1S)-2-((2-(bicyclo[1.1.1]pentan-1-ylcarbamoyl)-2-(6-oxo-5,7-diazaspiro[2.5]octan-5-yl)-2,3-dihydro-1H-inden-5-yl)amino)-1-cyclohexyl-2-oxoethyl)-1-methyl-1H-pyrazole-5-carboxamide]", "values": [{"measurement": "pIC50", "setting": "[1]", "value": 7.57}, {"measurement": "pIC50", "setting": "[2]", "value": 7.28}]}
{"smiles": "Cc1nonc1C(=O)N[C@H](C(=O)Nc1ccc2c(c1)CC(N1C[C@@H](C(F)(F)F)NC1=O)C2)C(C1CC1)C1CC1", "note": "(stereo partly drawn) [Example 183, N-((2S)-1,1-dicyclopropyl-3-oxo-3-((2-((S)-2-oxo-4-(trifluoromethyl)imidazolidin-1-yl)-2,3-dihydro-1H-inden-5-yl)amino)propan-2-yl)-4-methyl-1,2,5-oxadiazole-3-carboxamide]", "values": [{"measurement": "pIC50", "setting": "[1]", "value": 6.11}, {"measurement": "pIC50", "setting": "[2]", "value": 6.43}]}
{"smiles": "Cc1nonc1C(=O)N[C@H](C(=O)Nc1ccc2c(c1)CC(c1nc3ccccc3[nH]1)(N1CC3(CC3)CNC1=O)C2)C1CCC(F)(F)CC1", "note": "(stereo partly drawn) [Example 184, N-((1S)-2-((2-(1H-benzo[d]imidazol-2-yl)-2-(6-oxo-5,7-diazaspiro[2.5]octan-5-yl)-2,3-dihydro-1H-inden-5-yl)amino)-1-(4,4-difluorocyclohexyl)-2-oxoethyl)-4-methyl-1,2,5-oxadiazole-3-carboxamide]", "values": [{"measurement": "pIC50", "setting": "[1]", "value": 6.82}, {"measurement": "pIC50", "setting": "[2]", "value": 7.24}]}
{"smiles": "Cc1nonc1C(=O)N[C@H](C(=O)Nc1ccc2c(c1)CC(C(=O)NCC(C)C1CCCCC1)(N1CC3(CC3)CNC1=O)C2)C1CCC(F)(F)CC1", "note": "(stereo partly drawn) [Example 185, N-((1S)-2-((2-((2-cyclohexylpropyl)carbamoyl)-2-(6-oxo-5,7-diazaspiro[2.5]octan-5-yl)-2,3-dihydro-1H-inden-5-yl)amino)-1-(4,4-difluorocyclohexyl)-2-oxoethyl)-4-methyl-1,2,5-oxadiazole-3-carboxamide]", "values": [{"measurement": "pIC50", "setting": "[1]", "value": 6.93}, {"measurement": "pIC50", "setting": "[2]", "value": 6.56}]}
{"smiles": "CNC(=O)C1(N2C[C@@H](C(C)C)NC2=O)Cc2ccc(NC(=O)C(NC(=O)c3ccnn3C)C3CCc4cc(Cl)ccc4C3)cc2C1", "note": "(stereo partly drawn) [Example 186, N-(1-(6-chloro-1,2,3,4-tetrahydronaphthalen-2-yl)-2-((2-((R)-4-isopropyl-2-oxoimidazolidin-1-yl)-2-(methylcarbamoyl)-2,3-dihydro-1H-inden-5-yl)amino)-2-oxoethyl)-1-methyl-1H-pyrazole-5-carboxamide]", "values": [{"measurement": "pIC50", "setting": "[1]", "value": 8.20}, {"measurement": "pIC50", "setting": "[2]", "value": 7.82}]}
{"smiles": "Cc1nonc1C(=O)N[C@H](C(=O)Nc1ccc2c(c1)CC(c1nc3cccc(F)c3[nH]1)(N1CC3(CC3)CNC1=O)C2)C1CCC(F)(F)CC1", "note": "(stereo partly drawn) [Example 187, N-((1S)-1-(4,4-difluorocyclohexyl)-2-((2-(7-fluoro-1H-benzo[d]imidazol-2-yl)-2-(6-oxo-5,7-diazaspiro[2.5]octan-5-yl)-2,3-dihydro-1H-inden-5-yl)amino)-2-oxoethyl)-4-methyl-1,2,5-oxadiazole-3-carboxamide]", "values": [{"measurement": "pIC50", "setting": "[1]", "value": 6.60}, {"measurement": "pIC50", "setting": "[2]", "value": 6.61}]}
{"smiles": "Cc1nonc1C(=O)N[C@H](C(=O)Nc1ccc2c(c1)CC(C(=O)O)(N1CC3(CC3)CNC1=O)C2)C1CCC(F)(F)CC1", "note": "(stereo partly drawn) [Example 188, 5-((S)-2-(4,4-difluorocyclohexyl)-2-(4-methyl-1,2,5-oxadiazole-3-carboxamido)acetamido)-2-(6-oxo-5,7-diazaspiro[2.5]octan-5-yl)-2,3-dihydro-1H-indene-2-carboxylic acid]", "values": [{"measurement": "pIC50", "setting": "[1]", "value": 7.35}, {"measurement": "pIC50", "setting": "[2]", "value": 6.35}]}
{"smiles": "Cn1nccc1C(=O)N[C@H](C(=O)Nc1ccc2c(c1)CC(C(=O)O)(N1CC3(CC3)CNC1=O)C2)C1CCCCC1", "note": "(stereo partly drawn) [Example 189, 5-((S)-2-cyclohexyl-2-(1-methyl-1H-pyrazole-5-carboxamido)acetamido)-2-(6-oxo-5,7-diazaspiro[2.5]octan-5-yl)-2,3-dihydro-1H-indene-2-carboxylic acid]", "values": [{"measurement": "pIC50", "setting": "[1]", "value": 7.82}, {"measurement": "pIC50", "setting": "[2]", "value": 6.90}]}
{"smiles": "Cc1nonc1C(=O)N[C@H](C(=O)Nc1ccc2c(c1)CC(C(=O)NC1CCC(F)(F)C1)(N1CC3(CC3)CNC1=O)C2)C1CCC(F)(F)CC1", "note": "(stereo partly drawn) [Example 190, N-((1S)-1-(4,4-difluorocyclohexyl)-2-((2-((3,3-difluorocyclopentyl)carbamoyl)-2-(6-oxo-5,7-diazaspiro[2.5]octan-5-yl)-2,3-dihydro-1H-inden-5-yl)amino)-2-oxoethyl)-4-methyl-1,2,5-oxadiazole-3-carboxamide]", "values": [{"measurement": "pIC50", "setting": "[1]", "value": 7.06}, {"measurement": "pIC50", "setting": "[2]", "value": 6.86}]}
{"smiles": "Cc1nonc1C(=O)N[C@H](C(=O)Nc1ccc2c(c1)CC(C(=O)NC1CCC(F)(F)CC1)(N1CC3(CC3)CNC1=O)C2)C1CCC(F)(F)CC1", "note": "(stereo partly drawn) [Example 191, N-((1S)-1-(4,4-difluorocyclohexyl)-2-((2-((4,4-difluorocyclohexyl)carbamoyl)-2-(6-oxo-5,7-diazaspiro[2.5]octan-5-yl)-2,3-dihydro-1H-inden-5-yl)amino)-2-oxoethyl)-4-methyl-1,2,5-oxadiazole-3-carboxamide]", "values": [{"measurement": "pIC50", "setting": "[1]", "value": 7.11}, {"measurement": "pIC50", "setting": "[2]", "value": 6.77}]}
{"smiles": "Cc1nonc1C(=O)N[C@H](C(=O)Nc1ccc2c(c1)CC(c1nc3cccc(C(F)(F)F)c3[nH]1)(N1CC3(CC3)CNC1=O)C2)C1CCC(F)(F)CC1", "note": "(stereo partly drawn) [Example 192, N-((1S)-1-(4,4-difluorocyclohexyl)-2-oxo-2-((2-(6-oxo-5,7-diazaspiro[2.5]octan-5-yl)-2-(7-(trifluoromethyl)-1H-benzo[d]imidazol-2-yl)-2,3-dihydro-1H-inden-5-yl)amino)ethyl)-4-methyl-1,2,5-oxadiazole-3-carboxamide]", "values": [{"measurement": "pIC50", "setting": "[1]", "value": 5.78}, {"measurement": "pIC50", "setting": "[2]", "value": 5.91}]}
{"smiles": "Cn1nccc1C(=O)N[C@H](C(=O)Nc1ccc2c(c1)CC(C(=O)C(F)(F)F)(N1CC3(CC3)CNC1=O)C2)C1CCCCC1", "note": "(stereo partly drawn) [Example 193, N-((1S)-1-cyclohexyl-2-oxo-2-((2-(6-oxo-5,7-diazaspiro[2.5]octan-5-yl)-2-(2,2,2-trifluoroacetyl)-2,3-dihydro-1H-inden-5-yl)amino)ethyl)-1-methyl-1H-pyrazole-5-carboxamide]", "values": [{"measurement": "pIC50", "setting": "[1]", "value": 7.29}, {"measurement": "pIC50", "setting": "[2]", "value": 6.85}]}
{"smiles": "Cn1nccc1C(=O)N[C@H](C(=O)Nc1ccc2c(c1)CC(C(O)C(F)(F)F)(N1CC3(CC3)CNC1=O)C2)C1CCCCC1", "note": "(stereo partly drawn) [Example 194, N-((1S)-1-cyclohexyl-2-oxo-2-((2-(6-oxo-5,7-diazaspiro[2.5]octan-5-yl)-2-(2,2,2-trifluoro-1-hydroxyethyl)-2,3-dihydro-1H-inden-5-yl)amino)ethyl)-1-methyl-1H-pyrazole-5-carboxamide]", "values": [{"measurement": "pIC50", "setting": "[1]", "value": 7.47}, {"measurement": "pIC50", "setting": "[2]", "value": 7.68}]}
{"smiles": "CC(C)n1nccc1C(=O)N[C@H](C(=O)Nc1ccc2c(c1)CC(N1C[C@@H](C(F)(F)F)NC1=O)C2)C1CCCCC1", "note": "(stereo partly drawn) [Example 195, N-((1S)-1-cyclohexyl-2-oxo-2-((2-((S)-2-oxo-4-(trifluoromethyl)imidazolidin-1-yl)-2,3-dihydro-1H-inden-5-yl)amino)ethyl)-1-isopropyl-1H-pyrazole-5-carboxamide]", "values": [{"measurement": "pIC50", "setting": "[1]", "value": 6.89}, {"measurement": "pIC50", "setting": "[2]", "value": 6.42}]}
{"smiles": "CNC(=O)C1(N2C[C@@H](C(C)C)NC2=O)Cc2ccc(NC(=O)C(NC(=O)c3ccnn3C)C3CCc4ccc(Cl)cc4C3)cc2C1", "note": "(stereo partly drawn) [Example 196, N-(1-(7-chloro-1,2,3,4-tetrahydronaphthalen-2-yl)-2-((2-((R)-4-isopropyl-2-oxoimidazolidin-1-yl)-2-(methylcarbamoyl)-2,3-dihydro-1H-inden-5-yl)amino)-2-oxoethyl)-1-methyl-1H-pyrazole-5-carboxamide]", "values": [{"measurement": "pIC50", "setting": "[1]", "value": 7.70}, {"measurement": "pIC50", "setting": "[2]", "value": 7.23}]}
{"smiles": "Cn1nccc1C(=O)N[C@H](C(=O)Nc1ccc2c(c1)CC(N1C[C@@H](C(F)(F)F)NC1=O)C2)C(C1CC1)C1CC1", "note": "(stereo partly drawn) [Example 197, N-((2S)-1,1-dicyclopropyl-3-oxo-3-((2-((S)-2-oxo-4-(trifluoromethyl)imidazolidin-1-yl)-2,3-dihydro-1H-inden-5-yl)amino)propan-2-yl)-1-methyl-1H-pyrazole-5-carboxamide]", "values": [{"measurement": "pIC50", "setting": "[1]", "value": 7.09}, {"measurement": "pIC50", "setting": "[2]", "value": 6.40}]}
